# Laboratory results: paper PMC9458065, “Discovery of Quinacrine as a Potent Topo II and Hsp90 Dual-Target Inhibitor, Repurposing for Cancer Therapy” (Molecules, 2022)
# Structures can show the parent of a compound that is named as a salt.
# Legend:
# [1] = system: HL60 (HL−60 human leukemia cell); test: cells; set-up: MTT cell proliferation assay, OD 570 nm, IC50 from triplicate dose-response; conditions: MTT, 48 h
# Description: The cell proliferation assay was evaluated using the MTT assay as described by Mosmann, with modifications. Cells were seeded into 96−well plates (5 × 10^3 cells/well) and exposed to various concentrations of compounds. After 48 h of treatment, 20 μL of 2.5 mg/mL MTT reagent was added to each well, and the cells were further incubated for 4 h at 37 ℃. The cells in each well were then treated with 100 μL of dimethyl sulfoxide (DMSO), and the optical density (OD) was recorded at 570 nm using a microplate reader (Bio−Tek). All experiments were performed in parallel three times, and the IC50 values were derived from the mean OD values of triplicate tests versus the drug concentration curves. […] HL−60 human leukemia cell is sensitive to Topo II inhibitors, which are commonly used to evaluate the inhibitory effect of Topo II inhibitors on proliferation.
# [2] = biological target: T1, hTopo IIα ATPase (Homo sapiens, UniProt P11388); test: malachite green ATPase assay; type: biochemical; conditions: 100 µM; […] ATP, […] MgCl2, pH […] °C, […] min; relative inhibition rate, not absolute inhibition
# T1 construct: gene TOP2A; ATPase region, residues 29-428 (400 residues), N-terminal 6xHis, pET28a, E. coli BL21 (DE3)
# Description: malachite green ATPase assay on hTopo IIα ATPase
# [3] = biological target: T2, Hsp90α N−ATPase (9−236) (Homo sapiens, UniProt P07900); test: fluorescence polarization displacement of GM-FITC
# T2 construct: gene HSP90AA1
# [4] = biological target: T3, Hsp90α (Homo sapiens, UniProt P07900); test: malachite green ATPase assay; type: biochemical; conditions: read-out: % inhibition at 100 μM
# T3 construct: gene HSP90AA1
# [5] = biological target: T4, human Topo IIα (Homo sapiens, UniProt P11388); test: pBR322 DNA relaxation, agarose gel; type: biochemical
# T4 construct: gene TOP2A; full-length enzyme of a commercial relaxation kit (Inspiralis)
# T4 sequence (P11388 whole entry): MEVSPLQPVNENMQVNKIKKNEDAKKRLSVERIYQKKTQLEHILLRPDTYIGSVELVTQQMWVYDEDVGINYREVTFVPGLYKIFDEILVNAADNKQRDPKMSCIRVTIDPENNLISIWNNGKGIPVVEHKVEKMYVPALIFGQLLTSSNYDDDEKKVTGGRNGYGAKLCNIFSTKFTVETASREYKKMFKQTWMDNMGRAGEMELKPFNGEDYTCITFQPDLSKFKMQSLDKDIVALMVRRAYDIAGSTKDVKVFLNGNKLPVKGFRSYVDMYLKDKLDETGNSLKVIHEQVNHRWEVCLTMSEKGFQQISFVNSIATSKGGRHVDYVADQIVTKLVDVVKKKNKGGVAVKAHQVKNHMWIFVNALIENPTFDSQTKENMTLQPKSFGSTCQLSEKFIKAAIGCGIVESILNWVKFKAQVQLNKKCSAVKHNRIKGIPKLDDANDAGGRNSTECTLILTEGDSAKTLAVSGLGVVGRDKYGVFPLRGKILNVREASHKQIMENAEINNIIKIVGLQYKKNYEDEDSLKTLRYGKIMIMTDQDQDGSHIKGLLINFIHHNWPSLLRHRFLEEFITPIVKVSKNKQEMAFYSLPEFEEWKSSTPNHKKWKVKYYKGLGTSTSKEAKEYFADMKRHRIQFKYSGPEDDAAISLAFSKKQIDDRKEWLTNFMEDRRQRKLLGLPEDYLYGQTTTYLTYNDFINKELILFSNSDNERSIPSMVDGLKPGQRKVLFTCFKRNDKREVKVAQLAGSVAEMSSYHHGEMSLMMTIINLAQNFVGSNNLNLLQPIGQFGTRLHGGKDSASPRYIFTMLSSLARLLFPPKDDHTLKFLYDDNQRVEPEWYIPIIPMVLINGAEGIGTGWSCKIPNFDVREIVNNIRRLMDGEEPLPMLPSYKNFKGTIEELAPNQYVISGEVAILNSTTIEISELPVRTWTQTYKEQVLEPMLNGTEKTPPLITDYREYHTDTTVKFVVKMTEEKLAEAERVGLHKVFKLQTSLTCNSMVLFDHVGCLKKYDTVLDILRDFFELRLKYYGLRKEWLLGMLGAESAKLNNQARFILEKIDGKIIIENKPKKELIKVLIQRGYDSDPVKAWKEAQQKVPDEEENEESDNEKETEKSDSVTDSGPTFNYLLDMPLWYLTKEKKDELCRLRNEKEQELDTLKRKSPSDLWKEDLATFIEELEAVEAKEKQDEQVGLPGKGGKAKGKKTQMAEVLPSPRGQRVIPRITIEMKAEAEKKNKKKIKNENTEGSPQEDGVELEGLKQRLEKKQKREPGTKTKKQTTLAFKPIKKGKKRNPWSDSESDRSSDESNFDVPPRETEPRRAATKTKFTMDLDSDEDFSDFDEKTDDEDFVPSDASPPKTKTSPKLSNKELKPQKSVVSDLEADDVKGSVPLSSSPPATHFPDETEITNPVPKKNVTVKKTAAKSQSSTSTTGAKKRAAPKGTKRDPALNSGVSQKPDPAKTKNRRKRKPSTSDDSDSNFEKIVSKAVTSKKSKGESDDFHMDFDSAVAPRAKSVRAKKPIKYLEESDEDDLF
# T1 sequence (P11388 29-428): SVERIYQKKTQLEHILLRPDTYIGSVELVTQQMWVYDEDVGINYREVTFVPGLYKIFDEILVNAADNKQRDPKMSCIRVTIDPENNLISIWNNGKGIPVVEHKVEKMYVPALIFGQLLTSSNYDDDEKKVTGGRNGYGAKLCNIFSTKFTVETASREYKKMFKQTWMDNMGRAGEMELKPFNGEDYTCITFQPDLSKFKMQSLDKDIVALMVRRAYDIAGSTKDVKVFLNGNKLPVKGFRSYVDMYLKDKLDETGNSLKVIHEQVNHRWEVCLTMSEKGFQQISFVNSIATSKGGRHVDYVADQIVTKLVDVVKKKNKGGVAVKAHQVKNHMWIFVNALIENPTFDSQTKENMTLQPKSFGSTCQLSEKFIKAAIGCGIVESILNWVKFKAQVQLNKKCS
IC50 [1],SMILES,also measured
0.17 µM,COc1cc([C@@H]2c3cc4c(cc3[C@@H](O[C@@H]3O[C@@H]5CO[C@@H](C)O[C@H]5[C@H](O)[C@H]3O)[C@H]3COC(=O)[C@H]23)OCO4)cc(OC)c1O [VP−16],–
11.1 µM,"CCCCCCCCCCCCC/C=C/[C@@H](O)[C@@H](N)CO [K−D10, Sphingosine]",Topo II ATPase RIR (%) * [2]: 94.3%
> 25 µM,"N=C(N)NC(=O)Cc1c(Cl)cccc1Cl [2−H11, Guanfacine HCl]",–
> 25 µM,"CN1C(C(=O)Nc2ccccn2)=C(O)c2sccc2S1(=O)=O [7−H10, Tenoxicam]",–
–,"CN[C@@H]1C[C@H]2O[C@@](C)([C@@H]1OC)n1c3ccccc3c3c4c(c5c6ccccc6n2c5c31)C(=O)NC4 [K−B6, Staurosporine]",Topo II ATPase RIR (%) * [2]: 111.2%
19 µM,"N#C/C(=C\c1ccc(O)c(O)c1)C(=O)NCc1ccccc1 [K−D1, AG−490]",Topo II ATPase RIR (%) * [2]: 61.6%
1.18 µM,"Cn1cc(C2=C(c3cn(CCCSC(=N)N)c4ccccc34)C(=O)NC2=O)c2ccccc21 [K−D9, Ro 31−8220]",Topo II ATPase RIR (%) * [2]: 99.7%
> 25 µM,"Nc1ccc(C(=O)O)c(O)c1 [5−E4, 4−aminosalicylic acid]",–
0.75 µM,"CO[C@@H]1[C@H](N(C)C(=O)c2ccccc2)C[C@H]2O[C@]1(C)n1c3ccccc3c3c4c(c5c6ccccc6n2c5c31)C(=O)NC4 [K−C10, PKC−412]",–
19.7 µM,"COc1cc2nc(N3CCN(C(=O)C4COc5ccccc5O4)CC3)nc(N)c2cc1OC (centres unmarked) [6−B10, Doxazosin mesylate]",–
22.9 µM,"COc1ccc(C[C@@H]2c3cc(OC)c(OC)cc3CC[N@+]2(C)CCC(=O)OCCCCCOC(=O)CC[N@@+]2(C)CCc3cc(OC)c(OC)cc3[C@H]2Cc2ccc(OC)c(OC)c2)cc1OC [5−E11, Atracurium besylate]",–
> 25 µM,"CN1CCN(CCCN2c3ccccc3Sc3ccc(C(F)(F)F)cc32)CC1 [3−E6, Trifluoperazine 2HCl]",–
> 25 µM,"CN[C@@H]1[C@H](O[C@H]2[C@H](O[C@H]3[C@H](O)[C@@H](O)[C@H](N=C(N)N)[C@@H](O)[C@@H]3N=C(N)N)O[C@@H](C)[C@]2(O)C=O)O[C@@H](CO)[C@H](O)[C@H]1O [7−H3, Streptomycin sulfate]",–
> 25 µM,"O=C(O)c1cc(/N=N/c2ccc(S(=O)(=O)Nc3ccccn3)cc2)ccc1O [7−H7, Sulfasalazine]",–
5.22 µM,"CCN(CC)CCCC(C)Nc1c2ccc(Cl)cc2nc2ccc(OC)cc12 (centres unmarked) [7−F2, quinacrine]",IC50 [3]: 13.6 µM; inhibition at 100 µM [4]: ~70%; Topo II ATPase RIR (%) * [2]: 42.3%; IC50 [5]: 6.18 µM
> 25 µM,"Nc1ccc(O)c(C(=O)O)c1 [5−E5, 5−aminosalicylic acid]",–

IC50 [1],SMILES,also measured
9.51 µM,"CN(C)CCCn1cc(C2=C(c3c[nH]c4ccccc34)C(=O)NC2=O)c2ccccc21 [K−D7, GF 109203X]",–
8.02 µM,"CC(=O)Nc1ccc(CC(=O)O)cc1 [3−H6, Actarit]",–
> 25 µM,"COc1ncnc(NS(=O)(=O)c2ccc(N)cc2)c1OC [7−H4, Sulfadoxine]",–
> 25 µM,"CCOc1ccccc1OCCN[C@H](C)Cc1ccc(OC)c(S(N)(=O)=O)c1 [7−H8, Tamsulosin HCl]",–
> 25 µM,"CC1(C)S[C@@H]2[C@H](NC(=O)[C@H](N)c3ccccc3)C(=O)N2[C@H]1C(=O)O [5−E6, Ampicillin trihydrate]",–
> 25 µM,"N[C@@H](Cc1cc(I)c(Oc2cc(I)c(O)c(I)c2)c(I)c1)C(=O)O [8−H9, L−thyroxine]",–
> 25 µM,"Nc1ccc(S(=O)(=O)Nc2ncccn2)cc1 [7−H5, Sulfadiazine]",–
3.02 µM,"O=c1c(-c2ccc(O)cc2)coc2cc(O)ccc12 [K−F12, Daidzein]",Topo II ATPase RIR (%) * [2]: 101.2%
> 25 µM,"N#CC(C#N)=C(N)/C(C#N)=C/c1cc(O)c(O)c(O)c1 [K−C3, Tyrphostin 51]",Topo II ATPase RIR (%) * [2]: 85.8%
> 25 µM,"COc1cc(NS(=O)(=O)c2ccc(N)cc2)nc(OC)n1 [7−H6, Sulfadimethoxine]",–
12.1 µM,"Oc1cc(O)cc(/C=C/c2ccc(O)c(O)c2)c1 [K−C11, Piceatannol]",Topo II ATPase RIR (%) * [2]: 70.5%
7.2 µM,"O=C(c1ccc(OCCN2CCCCC2)cc1)c1c(-c2ccc(O)cc2)sc2cc(O)ccc12 [4−C3, Raloxifene HCl]",–
9.43 µM,"O=C1C(O)=C([C@H]2CC[C@H](c3ccc(Cl)cc3)CC2)C(=O)c2ccccc21 [2−G7, Atovaquone]",–
> 25 µM,"CCCc1nc2c(C)cc(-c3nc4ccccc4n3C)cc2n1Cc1ccc(-c2ccccc2C(=O)O)cc1 [7−H9, Telmisartan]",Topo II ATPase RIR (%) * [2]: 79.4%
> 25 µM,"COc1cc2nc(N3CCN(C(=O)C4CCCO4)CC3)nc(N)c2cc1OC (centres unmarked) [7−H11, Terazosin HCl]",–

SMILES,IC50 [1],also measured
"Cc1cc(O)c2c(=O)c3c(O)cc(O)c4c5c(O)cc(O)c6c(=O)c7c(O)cc(C)c8c1c2c(c34)c(c78)c65 [K−D8, Hypericin]",> 25 µM,–
"CC[N+](CC)(CC)CCOc1cccc(OCC[N+](CC)(CC)CC)c1OCC[N+](CC)(CC)CC [3−C11, Gallamine triethiodide]",> 25 µM,–
"N#C/C(=C\c1ccc(O)c(O)c1)C(N)=S [K−C2, Tyrphostin 47]",> 25 µM,Topo II ATPase RIR (%) * [2]: 90.3%
"COC[C@H]1OC(=O)c2coc3c2[C@@]1(C)C1=C(C3=O)[C@@H]2CCC(=O)[C@@]2(C)C[C@H]1OC(C)=O [K−D6, Wortmannin]",13.3 µM,–
